According to patent US9932300B2, “N,N′-diarylurea compounds and N,N′-diarylthiourea compounds as inhibitors of translation initiation” (President and Fellows of Harvard College, priority 2009, dated 2018):

Assays:
[1] = test system: eIF2-GTP-Met-tRNAi ternary complex; test: Ternary complex / ATF-4 dual luciferase assay in human cancer cell lines co-transfected with tTA and pBISA-DL(ATF-4) (CRL-2351, PC-3, CRL-2813); format: cell-based; settings: CRL-2351 cell line
Experimental: FIGS. 8A-8D depict that N,N′-diarylureas reduce the availability of the eIF2-GTP-Met-tRNAi ternary complex in human cancer cells. A-C) PC-3, CR-L2351, and CRL-2813 human cancer cell lines were co-transfected with pBISA-DL^(ATF-4) and ptTA plasmids. One day post-transfection, the cells were treated with the indicated concentrations of N,N′-diarylureas. Firefly/renilla ratio was determined by DLR assay 8 hours after treatment. D) PC-3, CR-L2351, and CRL-2813 human cancer cell lines were treated with the indicated concentrations of N,N′-diarylureas four 8 hours, and expression of endogenous CHOP mRNA was determined by real-time PCR.
For example, reducing amount of the ternary complex increases translation of ATF-4, which results in elevated expression of CHOP mRNA and protein. Therefore, expression of endogenous CHOP mRNA and CHOP protein in KLN-tTA/pBISA-DL^(ATF-4) cells were utilized as secondary assays to validate N,N′-diarylurea compounds as modifiers of the eIF2⋅GTP⋅Met-tRNAi ternary complex. […] To rule out the possibility that the activity of N,N′-diarylurea compounds was confined to a single cell type, the effects of these compounds on the ternary complex assay and the expression of CHOP mRNA was assayed in CRL-2351, PC-3, CRL-2813 human breast, prostate, and melanoma cancer cell lines respectively. For the reporter gene assay, the three human cell lines were co-transfected with tTA expression vector and the pBISA-DL^(ATF-4) dual luciferase expression vector shown in FIG. 6. […] The expression of CHOP mRNA was assayed by real time PCR in the same cell lines treated with 5 or 20 μM of each compound. […]
Stable and transient transfection: Cells were seeded at the density of 10^5 in 60-mm (stable transfection) or 10^4 cells per well of 96-well plate (transient transfection) plates and transfected one day later using the Qiagen Transfectamine transfection kit. For selection of stable cell lines, transfected cells were transferred to 100-mm plates and selected with appropriate antibiotics.
Dual luciferase assay: Cells or minced tumors expressing firefly and renilla luciferases were lysed and the extracts assayed with a glow type dual luciferase assay kit, per manufacturer's instruction (Promega Inc., Madison, Wis.).

[2] = test system: eIF2-GTP-Met-tRNAi ternary complex; test: Ternary complex assay (dual luciferase, firefly/renilla ratio) in stable KLN-tTA/pBISA-DL(ATF-4) cells; HTS and hit confirmation; format: cell-based, mouse; design: Activity 10 uM / Activity 2.5 uM / Activity 5 uM: unit not given here; settings: for Activity 5 uM: compound at 5 uM; for Activity 5 uM / Activity 10 uM: confirmed hits of the screen (Table 5); for Activity 10 uM: compound at 10 uM; for Effect on firefly/renilla luciferase ratio: KLN-tTA/pBISA-DL(ATF-4) colonies, assay validation

With `O=C(Nc1ccc(Cl)c(Cl)c1)Nc1ccc(Cl)c(Cl)c1` [Compound 1, 1,3-bis(3,4-dichlorophenyl)urea] the “ATF-4 Cmax (concentration corresponding to the maximal activity)” value (from here on “ATF-4 Cmax”) [1] was 5 µM.
In the case of `O=C(Nc1ccc(Cl)c(C(F)(F)F)c1)Nc1ccc(Cl)c(C(F)(F)F)c1` [Compound 2, 1,3-bis[4-chloro-3-(trifluoromethyl)phenyl]urea], the “ATF-4 Cmax” value [1] is reported as 2.4 µM.
For `O=C(Nc1cc(C(F)(F)F)cc(C(F)(F)F)c1)Nc1cc(C(F)(F)F)cc(C(F)(F)F)c1` [Compound 3, 1,3-bis[3,5-bis(trifluoromethyl)phenyl]urea], the “ATF-4 Cmax” value [1] was 2.5 µM.
For `Cc1ccc(NC(=O)Nc2ccc(Cl)c(Cl)c2)cc1O` [Compound 4, 3-(3,4-dichlorophenyl)-1-(3-hydroxy-4-methylphenyl)urea], the “ATF-4 Cmax” value [1] was 20 µM.
For `Cc1ccc(NC(=O)Nc2ccc(Cl)c(C(F)(F)F)c2)cc1O` [Compound 5, 3-[4-chloro-3-(trifluoromethyl)phenyl]-1-(3-hydroxy-4-methylphenyl)urea], the “ATF-4 Cmax” value [1] was 10 µM.
In the case of `Cc1ccc(NC(=O)Nc2cc(C(F)(F)F)cc(C(F)(F)F)c2)cc1O` [Compound 6, 3-[3,5-bis(trifluoromethyl)phenyl]-1-(3-hydroxy-4-methylphenyl)urea], the “ATF-4 Cmax” value [1] is reported as 5 µM.
For `COc1cc(NC(=O)Nc2ccc(Cl)c(C(F)(F)F)c2)ccc1C` [Compound 8], the “ATF-4 Cmax” value [1] was 10 µM.
For `COc1cc(NC(=O)Nc2cc(C(F)(F)F)cc(C(F)(F)F)c2)ccc1C` [Compound 9], the “ATF-4 Cmax” value [1] was 20 µM.
In the case of `Cc1ccc(NC(=O)Nc2ccc(Cl)c(Cl)c2)cc1OCCN(C)C` [Compound 11, 3-(3,4-dichlorophenyl)-1-{3-[2-(dimethylamino)ethoxy]-4-methylphenyl}urea], the “ATF-4 Cmax” value [1] is reported as 20 µM.
`Cc1ccc(NC(=O)Nc2ccc(Cl)c(C(F)(F)F)c2)cc1OCCN(C)C` [Compound 12, 3-[4-chloro-3-(trifluoromethyl)phenyl]-1-{3-[2-(dimethylamino)ethoxy]-4-methylphenyl}urea] was tested, and the “ATF-4 Cmax” value [1] was 10 µM.
In the case of `Cc1ccc(NC(=O)Nc2cc(C(F)(F)F)cc(C(F)(F)F)c2)cc1OCCN(C)C` [Compound 13, 3-[3,5-bis(trifluoromethyl)phenyl]-1-{3-[2-(dimethylamino)ethoxy]-4-methylphenyl}urea], the “ATF-4 Cmax” value [1] is reported as 10 µM.
With `Cc1ccc(NC(=O)Nc2ccc(Cl)c(Cl)c2)cc1OCCN1CCOCC1` [Compound 15, 3-(3,4-dichlorophenyl)-1-{4-methyl-3-[2-(morpholin-4-yl)ethoxy]phenyl}urea] the “ATF-4 Cmax” value [1] was 10 µM.
With `FC(F)(Sc1ccccn1)c1nc2ccccc2o1` [Compound 691256] the “Activity 5 uM” value [2] was 4.563 and the “Activity 10 uM” value [2] was 5.7865.
With `Cn1ccnc1SC(F)(F)c1nc2ccccc2o1` [Compound 691258] the “Activity 5 uM” value [2] was 3.891 and the “Activity 10 uM” value [2] was 3.904.
In the case of `O=[N+]([O-])c1cccc(-c2cn3c(n2)Cc2ccccc2C3)c1` [Compound 693037], the “Activity 5 uM” value [2] is reported as 6.794 and the “Activity 10 uM” value [2] is reported as 8.088.
For `COc1ccc(N=[N+]([O-])c2ccc(OC)cc2)cc1` [Compound 694092], the “Activity 5 uM” value [2] was 4.958 and the “Activity 10 uM” value [2] was 5.898.
With `CO[C@@]12[C@H](COC(N)=O)C3=C(C(=O)C(C)=C(N)C3=O)N1C[C@@H]1N[C@@H]12` [mitomycin, reference compound] the “Effect on firefly/renilla luciferase ratio” value [2] was “no effect”.
In the case of `C/C=C(/C)C(=O)O[C@H]1C(C)=C2[C@H]([C@@H]1OC(=O)CCCCCCC)[C@@](C)(OC(C)=O)C[C@H](OC(=O)CCC)[C@@]1(O)[C@H]2OC(=O)[C@@]1(C)O` [thapsigargin, reference compound], the “Effect on firefly/renilla luciferase ratio” value [2] is reported as “increase in the ratio of firefly activity relative to renilla activity”.
With tunicamycin [reference compound] the “Effect on firefly/renilla luciferase ratio” value [2] was “increase in the ratio of firefly activity relative to renilla activity”.
